Experimental data reported in patent US9604996B2 (Bayer Pharma Aktiengesellschaft, priority 2013, dated 2017).

These compounds were tested against T1, human adenosine A2b receptor (Homo sapiens, UniProt P29275) (assay: Cellular reporter gene (CRE-luciferase) A2b receptor antagonist assay in recombinant CHO-K1 cells stimulated with NECA). Details: recombinant CHO-K1 cell line, co-incubation with EC50 concentration of NECA, 3 hours, in some cases means, rounded to two significant digits.
T1 construct: expressed in transfected cells; host or cells: CHO-K1 (Chinese Hamster Ovary) with CRE-luciferase reporter
T1 sequence (P29275 1-332): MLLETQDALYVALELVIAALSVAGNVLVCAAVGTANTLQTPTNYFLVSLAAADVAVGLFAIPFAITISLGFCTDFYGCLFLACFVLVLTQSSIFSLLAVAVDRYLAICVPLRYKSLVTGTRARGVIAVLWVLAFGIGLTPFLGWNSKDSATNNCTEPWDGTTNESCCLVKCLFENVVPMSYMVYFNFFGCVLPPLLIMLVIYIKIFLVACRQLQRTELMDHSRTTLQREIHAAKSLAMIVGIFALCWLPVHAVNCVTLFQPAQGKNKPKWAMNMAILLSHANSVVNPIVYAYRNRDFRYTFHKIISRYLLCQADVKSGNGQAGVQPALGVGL
Type: cell-based
Description: B-1. Cellular In Vitro Tests for Determining A2b Receptor Activity and Adenosine Receptor Selectivity
The identification of selective antagonists of the human adenosine A2b receptor and the quantification of the efficacy and selectivity of the compounds according to the invention was carried out with the aid of recombinant cell lines for the human adenosine receptors A1, A2a, A2b and A3. These cell lines were originally derived from an ovarepithelial cell of the hamster (Chinese Hamster Ovary, CHO-K1, American Type Culture Collection, Manassas, Va. 20108, USA). In addition to the respective recombinantly expressed adenosine receptor for testing the efficacy at the A1, A2a and A2b receptors, the cell lines contain a reporter gene construct where expression of the firefly (Photinus pyralis) luciferase is under the control of a promoter which can be activated via intracellular signal cascades by stimulation of the receptors with the (not subtype-selective) adenosine receptor agonist NECA (5′-N-ethylcarboxamidoadenosine) [S. J. Hill, J. G. Baker, S. Rhees, Curr. Opin. Pharmacol. 1, 526-532 (2001)].
In the case of the A2a and A2b cell lines, this is a minimal promoter having a plurality of cAMP-responsive elements (CRE). Stimulation of the Gs coupled A2b or A2a receptors by NECA ultimately leads, via formation of cAMP, to CRE-dependent induction of luciferase expression, which is detected 3 hours after the start of the incubation with NECA using a detection solution in a suitable luminometer. For testing the antagonists, initially, in a pre-experiment, the concentration of NECA which, at the test day in question, results in half-maximum stimulation of luciferase expression (EC50 concentration) is determined By joint incubation of this EC50 concentration of NECA with the substances to be tested, it is possible to determine their antagonistic activity.
For `Cc1c(C(=O)N2CCC(O)(CO)CC2)sc2c1c(=O)n(CC(F)(F)c1ccccc1)c(=O)n2CCC(F)(F)F` [Example 70, 3-(2,2-Difluoro-2-phenylethyl)-6-{[4-hydroxy-4-(hydroxymethyl)piperidin-1-yl]carbonyl}-5-methyl-1-(3,3,3-trifluoropropyl)thieno [2,3-d]pyrimidine-2,4(1H,3H)-dione], the IC50 was 28 nM.
`CCn1c(=O)c2c(C)c(C(=O)N3CCC(O)(CC)CC3)sc2n(CCOC(F)(F)F)c1=O` [Example 112, 3-Ethyl-6-[(4-ethyl-4-hydroxypiperidin-1-yl)carbonyl]-5-methyl-1-[2-(trifluoromethoxy)ethyl]thieno[2,3-d]pyrimidine-2,4(1H,3H)-dione] showed an IC50 of 7.9 nM.
Work on `CCc1c(C(=O)N2CCC(O)CC2)sc2c1c(=O)n(CC)c(=O)n2CCC(F)(F)F` [Example 87, 3,5-Diethyl-6-[(4-hydroxypiperidin-1-yl)carbonyl]-1-(3,3,3-trifluoropropyl)thieno[2,3-d]pyrimidine-2,4(1H,3H)-dione] yielded an IC50 of 26 nM.
`CCn1c(=O)c2c(C)c(C(=O)N3CCNC(=O)C3C)sc2n(CCC(F)(F)F)c1=O` (racemic) [Example 39, 3-Ethyl-5-methyl-6-[(2-methyl-3-oxopiperazin-1-yl)carbonyl]-1-(3,3,3-trifluoropropyl)thieno[2,3-d]pyrimidine-2,4(1H,3H)-dione (racemate)] showed an IC50 of 220 nM.
Compound `CCn1c(=O)c2c(C)c(C(=O)N3CCC(O)C(C)C3)sc2n(CCC(F)(F)F)c1=O` (stereo not drawn) [Example 73, 3-Ethyl-6-[(4-hydroxy-3-methylpiperidin-1-yl)carbonyl]-5-methyl-1-(3,3,3-trifluoropropyl)thieno [2,3-d]pyrimidine-2,4(1H,3H)-dione (enantiomer pair 1)] has an IC50 of 53 nM.
`Cc1c(C(=O)N2CCC(O)(C(F)(F)F)CC2)sc2c1c(=O)n(CCc1ccccc1)c(=O)n2CCC(F)(F)F` [Example 69, 6-{[4-Hydroxy-4-(trifluoromethyl)piperidin-1-yl]carbonyl}-5-methyl-3-(2-phenylethyl)-1-(3,3,3-trifluoropropyl)thieno[2,3-d]pyrimidine-2,4(1H,3H)-dione] gave an IC50 of 60 nM.
`CCn1c(=O)c2c(C(F)F)c(C(=O)N3CCC(O)(CC)CC3)sc2n(CCC(F)(F)F)c1=O` [Example 125, 5-(Difluoromethyl)-3-ethyl-6-[(4-ethyl-4-hydroxypiperidin-1-yl)carbonyl]-1-(3,3,3-trifluoropropyl)thieno[2,3-d]pyrimidine-2,4(1H,3H)-dione] was tested, and the IC50 was 48 nM.
Work on `CCn1c(=O)c2c(C(F)(F)F)c(C(=O)N3CCC(O)(CO)CC3)sc2n(CCC(F)(F)F)c1=O` [Example 83, 3-Ethyl-6-{[4-hydroxy-4-(hydroxymethyl)piperidin-1-yl]carbonyl}-5-(trifluoromethyl)-1-(3,3,3-trifluoropropyl)thieno[2,3-d]pyrimidine-2,4(1H,3H)-dione] yielded an IC50 of 56 nM.
`COCCn1c(=O)n(CC(F)(F)c2ccccc2)c(=O)c2c(C)c(C(=O)N3CCC(O)CC3)sc21` [Example 52, 3-(2,2-Difluoro-2-phenylethyl)-6-[(4-hydroxypiperidin-1-yl)carbonyl]-1-(2-methoxyethyl)-5-methylthieno[2,3-d]pyrimidine-2,4(1H,3H)-dione] showed an IC50 of 210 nM.
`COC(Cn1c(=O)c2c(C)c(C(=O)N3CCC(O)(CO)CC3)sc2n(CCC(F)(F)F)c1=O)C(F)(F)F` (single isomer, unassigned) [Example 114, 6-{[4-Hydroxy-4-(hydroxymethyl)piperidin-1-yl]carbonyl}-5-methyl-3-(3,3,3-trifluoro-2-methoxypropyl)-1-(3,3,3-trifluoropropyl)thieno[2,3-d]pyrimidine-2,4(1H,3H)-dione] gave an IC50 of 110 nM.
`CCCn1c(=O)c2c(C(F)F)c(C(=O)N3CCC(C)(O)CC3)sc2n(CCC(F)(F)F)c1=O` [Example 142, 5-(Difluoromethyl)-6-[(4-hydroxy-4-methylpiperidin-1-yl)carbonyl]-3-propyl-1-(3,3,3-trifluoropropyl)thieno[2,3-d]pyrimidine-2,4(1H,3H)-dione] was tested, and the IC50 was 53 nM.
With `COC(Cn1c(=O)c2c(C)c(C(=O)N3CCC(O)CC3)sc2n(CCC(F)(F)F)c1=O)C(F)(F)F` (single isomer, unassigned) [Example 108, 6-[(4-Hydroxypiperidin-1-yl)carbonyl]-5-methyl-3-(3,3,3-trifluoro-2-methoxypropyl)-1-(3,3,3-trifluoropropyl)thieno[2,3-d]pyrimidine-2,4(1H,3H)-dione] the IC50 was 580 nM.
`CCCn1c(=O)c2c(C)c(C(=O)N3CCC(O)(CO)CC3)sc2n(CCOC(F)(F)F)c1=O` [Example 80, 6-{[4-Hydroxy-4-(hydroxymethyl)piperidin-1-yl]carbonyl}-5-methyl-3-propyl-1-[2-(trifluoromethoxy)ethyl]thieno[2,3-d]pyrimidine-2,4(1H,3H)-dione] showed an IC50 of 27 nM.
With `CCn1c(=O)c2c(C(F)F)c(C(=O)N3CCC(C)(O)CC3)sc2n(CCOC(F)(F)F)c1=O` [Example 127, 5-(Difluoromethyl)-3-ethyl-6-[(4-hydroxy-4-methylpiperidin-1-yl)carbonyl]-1-[2-(trifluoromethoxy)ethyl]thieno[2,3-d]pyrimidine-2,4(1H,3H)-dione] the IC50 was 9.5 nM.
`CCCn1c(=O)c2c(C)c(C(=O)N3CCC(C)(O)CC3)sc2n(CCOC(F)(F)F)c1=O` [Example 79, 6-[(4-Hydroxy-4-methylpiperidin-1-yl)carbonyl]-5-methyl-3-propyl-1-[2-(trifluoromethoxy)ethyl]thieno[2,3-d]pyrimidine-2,4(1H,3H)-dione] gave an IC50 of 8 nM.
`CC(C)Cn1c(=O)c2c(C(F)F)c(C(=O)N3CCC(C)(O)CC3)sc2n(CCC(F)(F)F)c1=O` [Example 140, 5-(Difluoromethyl)-6-[(4-hydroxy-4-methylpiperidin-1-yl)carbonyl]-3-isobutyl-1-(3,3,3-trifluoropropyl)thieno[2,3-d]pyrimidine-2,4(1H,3H)-dione] gave an IC50 of 39 nM.
In the case of `CC(C)Cn1c(=O)c2c(C(F)F)c(C(=O)N3CCC(C)(O)CC3)sc2n(CCOC(F)(F)F)c1=O` [Example 138, 5-(Difluoromethyl)-6-[(4-hydroxy-4-methylpiperidin-1-yl)carbonyl]-3-isobutyl-1-[2-(trifluoromethoxy)ethyl]thieno[2,3-d]pyrimidine-2,4(1H,3H)-dione], the IC50 is reported as 15 nM.
In the case of `O=C(c1cc2c(=O)n(CCc3ccccc3)c(=O)n(CCC(F)(F)F)c2s1)N1CCC(O)(CO)CC1` [Example 92, 6-{[4-Hydroxy-4-(hydroxymethyl)piperidin-1-yl]carbonyl}-3-(2-phenylethyl)-1-(3,3,3-trifluoropropyl)thieno[2,3-d]pyrimidine-2,4(1H,3H)-dione], the IC50 is reported as 370 nM.
`Cc1c(C(=O)N2CCC(O)CC2)sc2c1c(=O)n(CC(C)c1ccccc1)c(=O)n2CCC(F)(F)F` (single isomer, unassigned; enantiomer 2) [Example 45, 6-[(4-Hydroxypiperidin-1-yl)carbonyl]-5-methyl-3-(2-phenylpropyl)-1-(3,3,3-trifluoropropyl)thieno[2,3-d]pyrimidine-2,4(1H,3H)-dione (enantiomer 2)] gave an IC50 of 150 nM.
With `CCn1c(=O)c2c(C)c(C(=O)N3CCC(O)CC3)sc2n(CCCC(F)(F)F)c1=O` [Example 135, 3-Ethyl-6-[(4-hydroxypiperidin-1-yl)carbonyl]-5-methyl-1-(4,4,4-trifluorobutyl)thieno[2,3-d]pyrimidine-2,4(1H,3H)-dione] the IC50 was 94 nM.
